Experimental findings from ChEMBL document CHEMBL1141379, “Selective inhibitory activity against MAO and molecular modeling studies of 2-thiazolylhydrazone derivatives” (J Med Chem, 2007) are described below.

This test concerns the target T1, Amine oxidase [flavin-containing] A (Bos taurus, UniProt P21398).
T1 sequence (P21398 whole entry): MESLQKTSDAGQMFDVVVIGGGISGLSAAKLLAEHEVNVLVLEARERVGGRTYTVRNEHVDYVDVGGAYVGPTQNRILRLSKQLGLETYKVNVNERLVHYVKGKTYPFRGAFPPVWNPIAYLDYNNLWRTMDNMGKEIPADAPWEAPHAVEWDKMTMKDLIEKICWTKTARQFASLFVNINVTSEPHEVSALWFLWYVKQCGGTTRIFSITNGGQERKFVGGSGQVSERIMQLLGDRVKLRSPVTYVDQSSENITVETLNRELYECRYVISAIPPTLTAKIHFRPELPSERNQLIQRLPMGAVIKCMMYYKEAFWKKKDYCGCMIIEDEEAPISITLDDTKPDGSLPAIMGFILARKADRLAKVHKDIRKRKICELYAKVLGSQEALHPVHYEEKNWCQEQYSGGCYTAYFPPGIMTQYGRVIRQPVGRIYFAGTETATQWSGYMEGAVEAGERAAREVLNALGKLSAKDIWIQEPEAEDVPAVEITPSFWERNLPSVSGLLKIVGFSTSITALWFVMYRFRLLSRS
Briefly: Inhibition of bovine brain mitochondria MAOA.
The compound `Cc1csc(N/N=C/c2ccc(Cl)cc2Cl)n1` showed an inhibition constant (Ki) of 12 nM.
Consider `C(=N\Nc1nc(-c2ccccc2)cs1)/c1ccccc1`, for which the Ki was 1200 nM. This Ki lies about 100-fold higher than the previous one.
As to `Cc1csc(N/N=C/c2ccccc2C)n1`, the inhibitory constant (Ki) is 35.5 nM.
The compound `COc1ccc(/C=N/Nc2nc(-c3ccccc3)cs2)cc1` showed an inhibition constant (Ki) of 50.1 nM.
For `Cc1csc(N/N=C/c2ccc(Cl)cc2)n1`, the affinity, expressed as Ki, was 38 nM.
As for `Clc1ccc(/C=N/Nc2nc(-c3ccccc3)cs2)c(Cl)c1`, the figure is 93.3 nM.
Compound `Clc1ccc(/C=N/Nc2nc(-c3ccccc3)cs2)cc1` had an inhibition constant Ki of 100 nM.
`COc1ccc(/C=N/Nc2nc(-c3ccccc3)cs2)cc1OC` showed an inhibition constant (Ki) of 30.2 nM.
With `COc1ccc(/C=N/Nc2nc(C)cs2)cc1OC`, the affinity corresponds to a Ki of 13.2 nM.
With `Cc1csc(N/N=C/c2ccccc2)n1`, the affinity corresponds to a Ki of 7.24 nM.
`COc1ccc(/C=N/Nc2nc(C)cs2)cc1`: the Ki is 19.1 nM.

In general, Ki refers to a measure of affinity in units of concentration, obtained from inhibition or displacement. Low values mean tighter binding, high ones weaker binding.
